Source: patent publication US20030007941A1, “Method of treating hair loss using thyromimetic compounds” (priority 2001, published 2003)

Tests used:
[1] = tested on: mice and rats; details: topical; cited from earlier work
[2] = tested on: AGA mouse; details: topical, model for androgen dependent hair loss; cited from earlier work
[3] = tested on: C3H/HeN mice; assay: Telogen Conversion Assay (topical hair growth); type: in vivo; details: for Hair Growth at LDO (% Animals): animals with hair growth score of 1 or greater; for Hair Growth in 50% of Animals: day when 50% or greater had score of 1 or greater
Excerpt: The Telogen Conversion Assay measures the potential of a compound (hereinafter referred to as the “test compound”) to convert mice in the resting stage of the hair growth cycle (“telogen”) to the growth stage of the hair growth cycle (“anagen”). Without intending to be limited by theory, there are three principal phases of the hair growth cycle: anagen, catagen and telogen. The telogen period in C3H/HeN mice lasts from approximately 40 days of age until about 75 days of age, when hair growth is synchronized. It is believed that after 75 days of age, hair growth is no longer synchronized. For example, about 40 day-old mice with dark fur (brown or black) may be used in hair growth experiments; melanogenesis occurs in these animals along with hair (fur) growth and the topical application of hair growth inducers may be evaluated in these animals.
The Telogen Conversion Assay described below is used to screen test compounds for potential hair growth by measuring melanogenesis:
Objectives: To evaluate and compare the effect of test compounds applied topically on C3H/HeN mice for hair growth.
Animals: Female C3H/HeN mice, six and a half weeks of age.
Route and Duration of Treatment: Topical dosing with test compounds on mice is scheduled once or twice daily for five (5) consecutive days for one week to four weeks. Topical dosing begins on Day 0 by applying test compound or vehicle in volumes of 20 μl which keeps the solubilized test compound to a prescribed area of approximately one (1) square centimeter (1 cm^2) in the center of the clipped lower back of each mouse.
Study Design: Only mice with pink skin or in the telogen phase of the hair growth cycle are selected for inclusion in the study. On Friday, before the experiment starts, the mice are weighed and then anesthetized with isoflurane in a mouse chamber. The hair over the lower dorsal area is clipped with a Wahl clipper using a #40 blade. Care is taken to avoid abrading the skin surface. On the Monday (Day 0) following hair clipping, the mice are again anesthetized with isoflurane and photographed with a digital camera. After digital photographs are taken, the mice receive 20 μl of the respective test compounds applied with an automated pipette to the clipped area between the hind legs. The test compound for each treatment group is evenly spread with the pipette tip to an area approximately 1 square centimeter (1 cm^2), and applied to the same site on subsequent dosing days. All topical treatments are administered as described in the Route and Duration of Treatment Section.
Observations of the test sites are made three (3) times a week on Monday, Wednesday, and Friday, with observations beginning immediately after the first week of treatment and looking for changes in skin pigment, hair growth, and signs of irritation such as scaling, peeling, scabbing and erythema. Digital photographs are taken on Days 0, 10, 15, 31 and 35 (end of the study) for the dosing groups. Body weights of mice are taken on the first and last days of observation for each test group.
The scoring system for hair growth is described below:
0=No hair growth/pigment change (pink skin);
1=Gray/dark skin color (no visible hair growth);
2=Sparse/diffuse terminal hair growth;
3=dense, normal hair growth.
ph 2=peripheral hair growth with a score of 2
ph 3=peripheral hair growth with a score of 3
ldsh=long, diffuse/scattered hair growth in the dosing site
Scaling, peeling, scabbing, or erythema are scored as present (+) and absent (−). Any other local (e.g. test compound precipitation) or systemic abnormalities and aberrant hair growth are described on raw data scoring sheet.
Table 1 is a summary table of the results of the evaluation of five different test compounds in the Telogen Conversion Assay described above. Animals were observed and scored for hair growth using the scoring system for hair growth described above.

[4] = Experiment 3, 0.1% topical, 2 wks, LDO day 35
[5] = Experiment 1, 0.001% topical, 1 wk, LDO day 30
[6] = Experiment 1, 0.01% topical, 1 wk, LDO day 30
[7] = Experiment 1, 0.1% topical, 1 wk, LDO day 30
[8] = Experiment 1, 0.3% topical, 1 wk, LDO day 30
[9] = Experiment 2, 0.001% topical, 1 wk, LDO day 35
[10] = Experiment 2, 0.01% topical, 1 wk, LDO day 35
[11] = Experiment 2, 0.1% topical, 1 wk, LDO day 35
[12] = Experiment 2, 0.3% topical, 1 wk, LDO day 35
[13] = Experiment 3, 0.1% topical, 1 wk, LDO day 35

N[C@@H](Cc1cc(I)c(Oc2ccc(O)c(I)c2)c(I)c1)C(=O)O [T3, 3,5,3′-triiodo-L-thyronine]
effect on epidermal proliferation, dermal thickening and hair growth [1]: stimulates epidermal proloferation, dermal thickening and hair growth | effect on testosterone induced alopecia [2]: inhibitory effect

O=C(c1cc(Oc2c(Cl)cc(-n3ncc(=O)[nH]c3=O)cc2Cl)ccc1O)N1CCc2ccccc2C1 [Cpd #2, 2-{3,5-Dichloro-4-[3-(3,4-dihydro-1H-isoquinoline-2-carbonyl)-4-hydroxy-phenoxy]-phenyl}-2H-[1,2,4]triazine-3,5-dione]
Hair Growth at LDO (% Animals) [3, 4]: 100% | Hair Growth in 50% of Animals [3, 4]: 11 days

Cc1cc(-n2ncc(=O)[nH]c2=O)cc(C)c1Oc1ccc(O)c(Cc2ccc(F)cc2)c1 [Cpd #4, 2-{4-[3-(4-Fluoro-benzyl)-4-hydroxy-phenoxy]-3,5-dimethyl-phenyl}-2H-[1,2,4]triazine-3,5-dione]
Hair Growth at LDO (% Animals) [3, 4]: 100% | Hair Growth in 50% of Animals [3, 4]: 9 days

O=C(NC1CCCCC1)c1cc(Oc2c(Cl)cc(-n3ncc(=O)[nH]c3=O)cc2Cl)ccc1O [Cpd #1, N-Cyclohexyl-5-[2,6-dichloro-4-(3,5-dioxo-4,5-dihydro-3H-[1,2,4]triazin-2-yl)-phenoxy]-2-hydroxy-benzamide]
Hair Growth at LDO (% Animals) [3, 5]: 22% | Hair Growth in 50% of Animals [3, 5]: >30 days | Hair Growth at LDO (% Animals) [3, 6]: 75% | Hair Growth in 50% of Animals [3, 6]: 14 days | Hair Growth at LDO (% Animals) [3, 7]: 100% | Hair Growth in 50% of Animals [3, 7]: 7 days | Hair Growth at LDO (% Animals) [3, 8]: 100% | Hair Growth in 50% of Animals [3, 8]: 9 days | Hair Growth at LDO (% Animals) [3, 9]: 50% | Hair Growth in 50% of Animals [3, 9]: 18 days | Hair Growth at LDO (% Animals) [3, 10]: 100% | Hair Growth in 50% of Animals [3, 10]: 14 days | Hair Growth at LDO (% Animals) [3, 11]: 100% | Hair Growth in 50% of Animals [3, 11]: 7 days | Hair Growth at LDO (% Animals) [3, 12]: 100% | Hair Growth in 50% of Animals [3, 12]: 9 days | Hair Growth at LDO (% Animals) [3, 13]: 100% | Hair Growth in 50% of Animals [3, 13]: 7 days | Hair Growth at LDO (% Animals) [3, 4]: 100% | Hair Growth in 50% of Animals [3, 4]: 7 days

Cc1cc(NC(=O)C(=O)O)cc(C)c1Oc1ccc(O)c2c1CCC2 [Cpd #3, N-[4-(7-hydroxy-indan-4-yloxy)-3,5-dimethyl-phenyl]-oxamic acid]
Hair Growth at LDO (% Animals) [3, 4]: 20% | Hair Growth in 50% of Animals [3, 4]: >35 days

O=C(c1ccc(F)cc1)c1cc(Oc2c(Cl)cc(-n3ncc(=O)[nH]c3=O)cc2Cl)ccc1O [Cpd #5, 2-{3,5-Dichloro-4-[3-(4-fluoro-benzoyl)-4-hydroxy-phenoxy]-phenyl}-2H-[1,2,4]triazine-3,5-dione]
Hair Growth at LDO (% Animals) [3, 4]: 100% | Hair Growth in 50% of Animals [3, 4]: 9 days
